Each structure is given as a SMILES string.

This series in a line: Human HepG2 cell viability assay in 384 well format. The format is toxicity, cell-based. Also noted: dose 125 nL, time 70.5 hour; cytotoxicity at 70.5 h: concentration not given beside the values. The following applies: HepG2 cells, read-out: Inhibition.
For `O=C(NCc1cccnc1)N[C@H]1CC[C@@]2(CCC(=O)N2CC2CC2)CC1`, the cytotoxicity at 70.5 h amounted to 8.65%.
`O=C(NC[C@@H]1C[C@@H]2CN(C(=O)CO)C[C@H]2O1)c1ccsc1`: the cytotoxicity at 70.5 h was determined as 21%.
On to `N[C@@H]1CC[C@@H]1NC(=O)c1ccccc1OC(F)(F)C(F)F`, for which the cytotoxicity at 70.5 h is 3.75%.
The result for `Cc1nnc(C(C)N2CCCN(Cc3ccc(C#N)cc3)CC2)o1` (stereo not given) reads -2.73%; that for `CNC(=O)COc1c(F)cc(Br)cc1C(C)=O`, -5.63%; that for `COCC1c2c(cnn2C)CCN1Cc1ccc(F)cc1` (stereo not given), -0.871%.
For `Cc1nc(CCNC(=O)C2CC(=O)N(C(C)(C)C)C2)sc1Cl` (stereo not given), the cytotoxicity at 70.5 h was found to be 4.69%.
Regarding `Cn1nnnc1SCCNC(=O)CC1CCc2ccccc21` (stereo not given), the cytotoxicity at 70.5 h is -1.31%.
For the compound `CS(=O)(=O)CCNC(=O)c1cc2ccccc2nc1N1CCCC1`, the cytotoxicity at 70.5 h is -7.07%.
Take `CCn1c(C)nnc1SCCNc1nc(C)nc2ncccc12`: the cytotoxicity at 70.5 h was -15.7%.
`O=C(c1cccnc1-n1cncn1)N1CCC(Nc2ccccc2)CC1`: the cytotoxicity at 70.5 h is -0.978%.
The result for `Cc1[nH]nc(CCC(=O)N2CCCC(OCc3cccnc3)C2)c1C` (stereo not given) reads 1.55%; that for `COc1ccccc1NC(=O)NCc1nnc(SC)n1C`, -5.92%.
In the case of `N#Cc1ccc(F)c(CSCCN2CCOCC2)c1`, the cytotoxicity at 70.5 h was -7.03%.
On to `CN(CC(=O)N1CCCC1)C(=O)c1ccccc1Nc1ccccc1`, for which the cytotoxicity at 70.5 h is 18.3%.
On to `Cc1ccccc1-n1cnnc1SCCOCC1CCCO1` (stereo not given), for which the cytotoxicity at 70.5 h is -5%.
In the case of `Cc1c(C(=O)N2CCC3(CCCN(CC4CC4)C3=O)C2)ccn1C` (stereo not given), the cytotoxicity at 70.5 h amounted to 15.8%.
As for `CCn1cc2c(n1)CN(Cc1ccncc1)CC2COCC1CC1` (stereo not given), the cytotoxicity at 70.5 h is -17.6%.
Consider `Cc1c(CN2C[C@H](O)[C@@H](N3CCOCC3)C2)[nH]c2ccc(F)cc12`, for which the cytotoxicity at 70.5 h stood at 12.2%.
As for `CCCOC1CCCN(c2ccnc(C(=O)NCc3ccco3)c2)C1` (stereo not given), the figure is -8.53%; as for `CCCc1nnc(N2CC[C@@](O)(C3CCOCC3)[C@H](C)C2)s1`, 3.18%.
In the case of `CN1CCCCC1c1cncc(N2CCC(O)CC2)n1` (stereo not given), the cytotoxicity at 70.5 h is -0.469%.
As for `O=C(Nc1cccn(Cc2ccc(F)cc2)c1=O)c1cnc[nH]1`, the figure is -3.1%; as for `CC(C)c1nnc(NC(=O)N(C)Cc2ccc(C(N)=O)cc2)s1`, -4.8%.
Regarding `Cc1ccc(C(=O)NCc2ccc(N3CCCC(C(N)=O)C3)cc2)o1` (stereo not given), the cytotoxicity at 70.5 h is -14.6%.
With `CS(=O)(=O)NCCC1CCCCN1C(=O)NCc1ccccn1` (stereo not given), the cytotoxicity at 70.5 h was -18.6%.
As for `CCN(C(=O)COc1nc(Cc2ccc(F)cc2)no1)C1CC1`, the cytotoxicity at 70.5 h is -5.41%.
The result for `CCn1c(C)cc(C(=O)N2CCCC(n3ccnc3C)C2)c1C` (stereo not given) reads -6.2%; that for `Cc1cnc(C(=O)N2Cc3cc(Cl)ccc3OC3(CCOCC3)C2)cn1`, 1.54%.
Regarding `CCC(CO)N(Cc1ccccn1)C(=O)c1ccc(F)c(F)c1` (stereo not given), the cytotoxicity at 70.5 h is -6.83%.
For the compound `Cc1ccc(CN2Cc3c(C(=O)N4CCN(C)CC4)nn(C)c3C2)s1`, the cytotoxicity at 70.5 h was -3.87%.
The result for `O=S(=O)(C1CC1)N1CCO[C@H]2[C@H](OCC3CC3)CC[C@@H]21` reads 16.9%; that for `Cc1ccccc1C(=O)Nc1ccc(OC2CCN(C)CC2)cc1`, -4.55%.
`Cc1ncsc1CN1C[C@H](C(=O)N2CCCO2)[C@@H]2CCO[C@@H]2C1`: the cytotoxicity at 70.5 h was -0.785%.
Take `Cc1cc(CN2C[C@@H]3CN(C(=O)c4cccn4C)CCO[C@@H]3C2)no1`: the cytotoxicity at 70.5 h came to 1.95%.
`N#Cc1ccccc1C(=O)N1C[C@H](CO)C[C@H](CN2CCCC2)C1`: the cytotoxicity at 70.5 h is -8.82%.
For `Cc1cc(C2CCCN(Cc3nnc(Cc4ccccc4)o3)C2)n[nH]1` (stereo not given), the cytotoxicity at 70.5 h is -9.79%.
Take `Cc1ccccc1CC1(CO)CCCN(c2ncccc2C#N)C1` (stereo not given): the cytotoxicity at 70.5 h was -4.27%.
As to `CC(C)c1ccc(OCCNC(=O)c2ccoc2)cc1`, the cytotoxicity at 70.5 h turned out to be 23.9%.
Turning to `CC1c2cc(F)ccc2CCN1C(=O)c1[nH]c(=O)[nH]c(=O)c1N` (stereo not given), the cytotoxicity at 70.5 h is -2.24%.
Take `Cn1cc(C(=O)OC2CN(c3nc4c(C(F)(F)F)cccc4s3)C2)nn1`: the cytotoxicity at 70.5 h was determined as 1.02%.
As for `Cc1ccoc1C(=O)N1Cc2c(CN3CCCCC3)nn(C)c2C1`, the figure is 0.575%; as for `CCNC(=O)N(C)Cc1ccc(SC)c(OC)c1`, -7.42%; as for `COc1cccc(S(=O)(=O)CCN2CCC3(CC2)OCCO3)c1`, -18.5%.
Turning to `Cc1nn(C)c(C)c1C1CCCN1CC(=O)Nc1cc(C(C)C)no1` (stereo not given), the cytotoxicity at 70.5 h is -3.36%.
`CC(C)N1CCOCC2(CN(Cc3ccco3)CCO2)C1` (stereo not given): the cytotoxicity at 70.5 h was -8.16%.
Regarding `Cc1cccc(Cl)c1NC(=O)Cn1cc(C(=O)O)ccc1=O`, the cytotoxicity at 70.5 h was -2.75%.
The result for `COc1ccc(NC(=O)Cn2nc(C)c(C)cc2=O)c(OC)c1` reads -8.67%; that for `CCCn1c(C)c(CC(=O)NCC(N)=O)c2c1CC(C)(C)CC2=O`, 0.554%.
As for `CCNc1ncc(C(=O)N2CCOC(CCCC(C)C)C2)cn1` (stereo not given), the figure is -7.7%; as for `CC(C)OCc1nn(C)c2c1CCN(Cc1ccco1)C2`, -7.18%.
Consider `O=S(=O)(c1cccs1)N1CCCn2nnc(CN3CCCCC3)c2C1`, for which the cytotoxicity at 70.5 h worked out at 0.152%.
For `O=C(c1n[nH]cc1Cl)N1CCCC(n2nnc3cc(F)ccc32)C1` (stereo not given), the cytotoxicity at 70.5 h was -5.16%.
`COc1ccc(-c2c[nH]c(C3CC(=O)N(CC(C)C)C3)n2)cc1` (stereo not given): the cytotoxicity at 70.5 h was -7.11%.
For the compound `Cc1cc(C(=O)Nc2n[nH]c(C3CC3)n2)c2c(C)nn(C)c2n1`, the cytotoxicity at 70.5 h was 25.6%.
Regarding `CC(C)c1noc(C(C)S(=O)(=O)Cc2nc(C3CC3)no2)n1` (stereo not given), the cytotoxicity at 70.5 h was -4.5%.
Regarding `COc1ccc(CC(=O)NC2CCN(CC(F)F)CC2)cc1OC`, the cytotoxicity at 70.5 h came to 0.793%.
The result for `O=C(NCc1ccncc1)N1CC(Cc2ccccc2F)C1` reads -5.27%; that for `c1ccc(COc2cccc(CNC3CCc4ncnn4C3)c2)cc1` (stereo not given), 19.6%.
In the case of `CCCc1n[nH]c(C2CN(CC(=O)N(C)Cc3ccco3)CCO2)n1` (stereo not given), the cytotoxicity at 70.5 h was -6.63%.
The result for `O=S(=O)(CCOc1ccc(F)cc1)Nc1cnn(CC(F)F)c1` reads -6.59%; that for `COc1cc(N2C[C@H]3OCC[C@H]3[C@H](C(=O)NC3CC3)C2)ncn1`, -4.39%; that for `CC(=O)N(C)Cc1cncc(C2CCCN2C2CCOCC2)n1` (stereo not given), -9.86%.
For the compound `CCC1c2ccccc2CCN1CCCS(C)(=O)=O` (stereo not given), the cytotoxicity at 70.5 h is -3.06%.
On to `Cc1cnn(CCNCC(=O)NCCOc2ccc(F)cc2)c1`, for which the cytotoxicity at 70.5 h was -9.5%.
Turning to `CC(C)=CCN1CC2(CCN(Cc3cccc(C#N)c3)CC2)CC1=O`, the cytotoxicity at 70.5 h amounted to 8.66%.
For `CC(C)(CN1CCC(Cc2cccc(C(=O)O)c2)C1)N1CCOCC1` (stereo not given), the cytotoxicity at 70.5 h was -9.68%.
Consider `COc1cccc(CCNS(=O)(=O)c2ccc(NC(C)=O)cc2)c1`, for which the cytotoxicity at 70.5 h amounted to 2.8%.
`Fc1cccc(-c2nnn3c2COC(CNCc2nccs2)C3)c1` (stereo not given): the cytotoxicity at 70.5 h was 14.6%.
In the case of `CN1CCN(C(=O)c2nnc3ccc(Cl)cc3n2)CC1`, the cytotoxicity at 70.5 h is -10.9%.

Values taken from ChEMBL document CHEMBL3507680, “University of Dundee, Gates Library screen for HepG2 cell viability”.
